Measured values: patent publication US9296745B2, “Diacylglycerol acyltransferase 2 inhibitors” (Pfizer Inc., priority 2012, dated 2016)

Biological target: Human DGAT2 (hDGAT2) (Homo sapiens (Human), UniProt Q96PD7)
Assay: In vitro DGAT2 assay, IC50 determination with hDGAT2 membrane fraction
Assay type: biochemical
Settings: geometric mean; background for complete inhibition of DGAT2 obtained with 50 μM (1R,2R)-2-({3′-Fluoro-4′-[(6-fluoro-1,3-benzothiazol-2-yl)amino]-1,1′-biphenyl-4-yl}carbonyl)cyclopentanecarboxylic acid; read-out: DGAT2 IC50
Summary of the method: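 CHAPS-solubilized membrane fraction of FLAG-tagged hDGAT2 from baculovirus-infected SF9 cells (0.01 mg/mL) in 100 mM Hepes-NaOH pH 7.4, 20 mM MgCl2, 200 nM methyl arachidonyl fluorophosphonate; compounds pre-incubated 20 min with 0.04% BSA. Reaction 40 min at room temperature, stopped with H3PO4. [^14C]tridecanoylglycerol in organic phase counted; 11-point geometric mean IC50.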

Sequence of Human DGAT2 (hDGAT2) (Q96PD7 whole entry): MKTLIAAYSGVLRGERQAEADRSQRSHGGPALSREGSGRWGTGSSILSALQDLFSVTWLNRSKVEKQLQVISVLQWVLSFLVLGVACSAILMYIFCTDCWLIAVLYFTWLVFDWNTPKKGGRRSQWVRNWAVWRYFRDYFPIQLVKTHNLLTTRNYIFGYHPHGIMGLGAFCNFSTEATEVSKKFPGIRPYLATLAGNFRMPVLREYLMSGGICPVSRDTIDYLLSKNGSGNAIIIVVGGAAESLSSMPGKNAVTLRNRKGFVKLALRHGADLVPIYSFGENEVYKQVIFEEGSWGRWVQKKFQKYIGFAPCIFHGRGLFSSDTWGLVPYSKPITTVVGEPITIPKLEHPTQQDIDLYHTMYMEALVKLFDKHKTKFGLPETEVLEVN

Compound	IC50 [nM]
Cn1nccc1C1(c2nc3ccc(N4CCC[C@@H](C(=O)N5CCCC5)C4)nc3[nH]2)CC1 [Example 104, (R)-(1-(2-(1-(1-Methyl-1H-pyrazol-5-yl)cyclopropyl)-3H-imidazo[4,5-b]pyridin-5-yl)piperidin-3-yl)(pyrrolidin-1-yl)methanone]	190
CCOC(=O)c1cc(CC)nc(-c2nc3ccc(N4CCC[C@@H](C(=O)N5CCCC5)C4)nc3[nH]2)c1 [Example 105, (R)-Ethyl 2-ethyl-6-(5-(3-(pyrrolidine-1-carbonyl)piperidin-1-yl)-3H-imidazo[4,5-b]pyridin-2-yl)isonicotinate]	28.9
O=C([C@@H]1CCCN(c2ccc3nc(C4(c5ccc(C(F)(F)F)cc5)CC4)[nH]c3n2)C1)N1CCCC1 [Example 106, (R)-Pyrrolidin-1-yl(1-(2-(1-(4-(trifluoromethyl)phenyl)cyclopropyl)-3H-imidazo[4,5-b]pyridin-5-yl)piperidin-3-yl)methanone]	5.68
O=C([C@@H]1CCCN(c2ccc3nc(-c4cncc(C5CC5)n4)[nH]c3n2)C1)N1CCOCC1 [Example 107, (R)-(1-(2-(6-Cyclopropylpyrazin-2-yl)-3H-imidazo[4,5-b]pyridin-5-yl)piperidin-3-yl)(morpholino)methanone]	153
COC(=O)Cc1cccc(-c2nc3ccc(N4CCC[C@@H](C(=O)N5CCCC5)C4)nc3[nH]2)c1 [Example 110, (R)-Methyl 2-(3-(5-(3-(pyrrolidine-1-carbonyl)piperidin-1-yl)-3H-imidazo[4,5-b]pyridin-2-yl)phenyl)acetate]	41.5
O=C([C@@H]1CCCN(c2ccc3nc(-c4cccc(C5(O)COC5)n4)[nH]c3n2)C1)N1CCCC1 [Example 111, (R)-(1-(2-(6-(3-Hydroxyoxetan-3-yl)pyridin-2-yl)-3H-imidazo[4,5-b]pyridin-5-yl)piperidin-3-yl)(pyrrolidin-1-yl)methanone]	697
O=C([C@@H]1CCCN(c2ccc3nc(-c4cccc(C(F)(F)F)n4)[nH]c3n2)C1)N1CCCC1 [Example 112, (R)-Pyrrolidin-1-yl(1-(2-(6-(trifluoromethyl)pyridin-2-yl)-3H-imidazo[4,5-b]pyridin-5-yl)piperidin-3-yl)methanone]	9.23
O=C([C@@H]1CCCN(c2ccc3nc(-c4cncc(F)c4)[nH]c3n2)C1)N1CCCC1 [Example 113, (R)-(1-(2-(5-Fluoropyridin-3-yl)-3H-imidazo[4,5-b]pyridin-5-yl)piperidin-3-yl)(pyrrolidin-1-yl)methanone]	137
NS(=O)(=O)c1cccc(-c2nc3ccc(N4CCC[C@@H](C(=O)N5CCCC5)C4)nc3[nH]2)c1 [Example 114, (R)-3-(5-(3-(Pyrrolidine-1-carbonyl)piperidin-1-yl)-3H-imidazo[4,5-b]pyridin-2-yl)benzenesulfonamide]	90.3
CC(C)(O)c1cccc(-c2nc3ccc(N4CCC[C@@H](C(=O)N5CCCC5)C4)nc3[nH]2)n1 [Example 115, (R)-(1-(2-(6-(2-Hydroxypropan-2-yl)pyridin-2-yl)-3H-imidazo[4,5-b]pyridin-5-yl)piperidin-3-yl)(pyrrolidin-1-yl)methanone]	67.9
O=C([C@@H]1CCCN(c2ccc3nc(-c4ccccc4)[nH]c3n2)C1)N1CCCC1 [Example 116, (R)-(1-(2-Phenyl-3H-imidazo[4,5-b]pyridin-5-yl)piperidin-3-yl)(pyrrolidin-1-yl)methanone]	66.2
O=C([C@@H]1CCCN(c2ccc3nc(-c4coc(C5CC5)n4)[nH]c3n2)C1)N1CCCC1 [Example 118, (R)-(1-(2-(2-Cyclopropyloxazol-4-yl)-3H-imidazo[4,5-b]pyridin-5-yl)piperidin-3-yl)(pyrrolidin-1-yl)methanone]	301
CN(C)c1cccc(-c2nc3ccc(N4CCC[C@@H](C(=O)N5CCCC5)C4)nc3[nH]2)n1 [Example 119, (R)-(1-(2-(6-(Dimethylamino)pyridin-2-yl)-3H-imidazo[4,5-b]pyridin-5-yl)piperidin-3-yl)(pyrrolidin-1-yl)methanone]	22.2
O=C([C@@H]1CCCN(c2ccc3nc(-c4cccc(N5CCC5)n4)[nH]c3n2)C1)N1CCCC1 [Example 120, (R)-(1-(2-(6-(Azetidin-1-yl)pyridin-2-yl)-3H-imidazo[4,5-b]pyridin-5-yl)piperidin-3-yl)(pyrrolidin-1-yl)methanone]	21.5

More lines, now with the values ahead:

IC50 [nM]	Compound
14.3	O=C([C@@H]1CCCN(c2ccc3nc(-c4cccc(OC(F)F)n4)[nH]c3n2)C1)N1CCCC1 [Example 121, (R)-(1-(2-(6-(Difluoromethoxy)pyridin-2-yl)-3H-imidazo[4,5-b]pyridin-5-yl)piperidin-3-yl)(pyrrolidin-1-yl)methanone]
10.9	O=C([C@@H]1CCCN(c2ccc3nc(-c4cccc(C(F)F)n4)[nH]c3n2)C1)N1CCCC1 [Example 122, (R)-(1-(2-(6-(Difluoromethyl)pyridin-2-yl)-3H-imidazo[4,5-b]pyridin-5-yl)piperidin-3-yl)(pyrrolidin-1-yl)methanone]
276	COC(=O)c1cccc(-c2nc3ccc(N4CCC[C@@H](C(=O)N5CCCC5)C4)nc3[nH]2)n1 [Example 123, (R)-Methyl 6-(5-(3-(pyrrolidine-1-carbonyl)piperidin-1-yl)-1H-imidazo[4,5-b]pyridin-2-yl)picolinate]
5.27	CCOC(=O)C1(c2cccc(-c3nc4ccc(N5CCC[C@@H](C(=O)N6CCCC6)C5)nc4[nH]3)c2)CC1 [Example 124, (R)-Ethyl 1-(3-(5-(3-(pyrrolidine-1-carbonyl)piperidin-1-yl)-3H-imidazo[4,5-b]pyridin-2-yl)phenyl)cyclopropanecarboxylate]
54	COC(=O)c1cccc(-c2nc3ccc(N4CCC[C@@H](C(=O)N5CCCC5)C4)nc3[nH]2)c1 [Example 125, (R)-Methyl 3-(5-(3-(pyrrolidine-1-carbonyl)piperidin-1-yl)-3H-imidazo[4,5-b]pyridin-2-yl)benzoate]
3470	COc1cc(C(=O)O)cc(-c2nc3ccc(N4CCC[C@@H](C(=O)N5CCCC5)C4)nc3[nH]2)n1 [Example 126, (R)-2-Methoxy-6-(5-(3-(pyrrolidine-1-carbonyl)piperidin-1-yl)-3H-imidazo[4,5-b]pyridin-2-yl)isonicotinic acid]
235	CS(=O)(=O)c1cccc(-c2nc3ccc(N4CCC[C@@H](C(=O)N5CCCC5)C4)nc3[nH]2)c1 [Example 127, (R)-(1-(2-(3-(Methylsulfonyl)phenyl)-3H-imidazo[4,5-b]pyridin-5-yl)piperidin-3-yl)(pyrrolidin-1-yl)methanone]
7.16	CCOC(=O)CCc1cccc(-c2nc3ccc(N4CCC[C@@H](C(=O)N5CCCC5)C4)nc3[nH]2)c1 [Example 128, (R)-Ethyl 3-(3-(5-(3-(pyrrolidine-1-carbonyl)piperidin-1-yl)-3H-imidazo[4,5-b]pyridin-2-yl)phenyl)propanoate]
4540	CCN(CC)C(=O)c1nc2ccc(N3CCC[C@@H](C(=O)N4CCCC4)C3)nc2[nH]1 [Example 129, (R)—N,N-Diethyl-5-(3-(pyrrolidine-1-carbonyl)piperidin-1-yl)-3H-imidazo[4,5-b]pyridine-2-carboxamide]
1900	O=C(Nc1ccccn1)c1nc2ccc(N3CCC[C@@H](C(=O)N4CCCC4)C3)nc2[nH]1 [Example 130, (R)—N-(Pyridin-2-yl)-5-(3-(pyrrolidine-1-carbonyl)piperidin-1-yl)-3H-imidazo[4,5-b]pyridine-2-carboxamide]
